The pKa is the negative logarithm of the acid dissociation constant. Low readings indicate a group that gives up its proton readily, high ones a group that holds its proton tightly.

One data set is described as follows: pKa of compound 1. Particulars: weak base. It is filed as physicochemical. An excerpt: (§1) Compound 1 is being evaluated in the clinic for the treatment of liver infection caused by hepatitis C virus. The estimated daily dose is 1 g-2 g requiring high drug loading in the drug product to provide the best treatment regimen for the patients. […] The high dose and need for an immediate release profile are further complicated by the low bulk density of the drug substance (0.04 to 0.3 g/cc). The conventional manufacturing technologies employing commonly used excipients require the use of multiple densification steps as well as high amounts of excipients such as binders. In addition to the multi-step manufacturing process, the high usage of binder has a negative impact on the dissolution of the product resulting in lower bioavailability.

Data set [1] is described as follows: pH solubility profile of compound 1 at room temperature (FIG. 1). Particulars: pH>4, FIG. 1. Type of data set: physicochemical.
From the text: as §1
FIG. 1 provides a graph illustrating the pH solubility profile of compound 1 at room temperature.

Consider `CC(C)C(=O)OC[C@H]1O[C@@H](n2ccc(N)nc2=O)[C@](C)(F)[C@@H]1OC(=O)C(C)C` [Compound 1, Isobutyric acid (2R,3R,4R,5R)-5-(4-amino-2-oxo-2H-pyrimidin-1-yl)-4-fluoro-2-isobutyryloxymethyl-4-methyl-tetrahydro-furan-3-yl ester], for which, in “pKa of compound 1”, the pKa was found to be 3.5. Besides, in data set [1], the “drug solubility vs pH” value is reported as “drops precipitously”.

(Values after patent US8222230B2, “Pharmaceutical compositions with superior product performance and patient compliance” (Hoffmann-La Roche Inc., priority 2009, dated 2012).)
